Consider eight compounds from the supplement of paper PMC11061612.

Experiment in all cases: Bliss excess, mean over the matrix (fraction); higher = more synergy
Experiment [1] deals with MFE-280 (Endometrial Carcinoma). An outline of the steps: (§1)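 Cell lines in DMEM/F12 or RPMI with 10% FBS were plated in 1536-well plates, held 24 hours at 37°C, 5% CO2, then given two-drug dose matrices for 72 hours (DMSO typically 0.2%). Viability was read by CellTiter-Glo 2.0 luminescence and scaled as inhibition from 0 (vehicle wells) to 1 (blank wells). Combination Emax is the second-highest inhibition in the matrix; Bliss excess is observed combination effect minus expected EA + EB − EA·EB, EA and EB being single-agent effects.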

The subject of experiment [2] is PANC-03-27 (Pancreatic Carcinoma). An outline of the steps: as §1
Experiment [3] relates to REH (B-Lymphoblastic Leukemia). An outline of the steps:
as §1

Experiment [4] deals with HEC-1 (Endometrial Carcinoma). The method, boiled down:
as §1

In experiment [5] the test system is LN-229 (Glioblastoma). The method, boiled down: as §1
Experiment [6] deals with LB996-RCC (Kidney Carcinoma). The method, boiled down: as §1
Experiment [7] concerns LK-2 (Squamous Cell Lung Carcinoma). The method, boiled down: as §1
The subject of experiment [8] is CAL-62 (Thyroid Gland Carcinoma). The method, boiled down:
as §1

Experiment [9] relates to COLO-680N (Esophageal Squamous Cell Carcinoma). The method, boiled down:
as §1

Experiment [10] has as its system NCI-H446 (Small Cell Lung Carcinoma). An outline of the steps: as §1
For experiment [11], the system named is PSN1 (Pancreatic Carcinoma). An outline of the steps:
as §1

For experiment [12], the system named is GP5d (Colorectal Carcinoma). An outline of the steps: as §1
In experiment [13] the test system is MKN45 (Gastric Carcinoma). The method, boiled down:
as §1

In experiment [14] the test system is RKN (Other Solid Carcinomas). The method, boiled down: as §1
The test system of experiment [15] is TE-8 (Esophageal Squamous Cell Carcinoma). An outline of the steps:
as §1

Experiment [16] concerns SHP-77 (Small Cell Lung Carcinoma). An outline of the steps:
as §1

The subject of experiment [17] is KE-37 (T-Lymphoblastic Leukemia). An outline of the steps: as §1
Experiment [18] deals with FADU (Head and Neck Carcinoma). The method, boiled down:
as §1

Experiment [19] deals with RERF-LC-Sq1 (Squamous Cell Lung Carcinoma). The method, boiled down: as §1

The structures appear in SMILES notation.

On to `CN(C)CCCOc1ccc(-c2ccc3ncc4c(c3c2)n(C2CCOCC2)c(=O)n4C)cn1` [AZD0156] + C[C@@H]1COCCN1C2=NC(=NC(=C2)C3(CC3)[S@](=N)(=O)C)C4=C5C=CNC5=NC=C4 [AZD6738] (first compound max 1 µM, 7x7, partner max 10 µM), for which the Bliss excess in experiment [1] was -0.0116; in [2] it was -0.0078; in experiment [3] it was -0.0277; in [4] it was -0.004; in [5] it was -0.0412; in experiment [6], 0.0089. Moreover, the Bliss excess in [7] is -0.0261; in [8], -0.0221; in experiment [9], -0.0311; in [10], 0.0625; in experiment [11] it was -0.0202; in experiment [12], 0.0291. The Bliss excess in [13] was 0.0072; in experiment [14] it was -0.0126; in experiment [15] it was 0.0087; in experiment [16], 0.0535; in experiment [17] it was 0.0459; in [18], 0.0537. In experiment [19], the Bliss excess was 0.0544.
On to `CN(C)CCCOc1ccc(-c2ccc3ncc4c(c3c2)n(C2CCOCC2)c(=O)n4C)cn1` [AZD0156] + CCN(CCO)CCCOc1ccc2c(Nc3cc(CC(=O)Nc4cccc(F)c4)[nH]n3)ncnc2c1 [AZD2811] (first compound max 1 µM, 7x7, partner max 1 µM), for which the Bliss excess in experiment [1] is 0.0072; in [2], -0.0519; in experiment [3], -0.0137; in experiment [4] it was -0.0152; in [5], -0.0331; in [6], 0.0375. In addition, the Bliss excess was 0.0201 in experiment [7]; 0.007 in [8]; -0.0404 in experiment [9]; -0.0587 in experiment [10]; -0.0336 in experiment [11]; 0.004 in experiment [12]. The Bliss excess in experiment [13] is 0.0034; in experiment [14], -0.0417; in experiment [15], -0.0073; in experiment [16] it was -0.034; in [17] it was -0.0173; in experiment [18] it was 0.0626. Also, the Bliss excess in experiment [19] turned out to be 0.0325.
Regarding `CN(C)CCCOc1ccc(-c2ccc3ncc4c(c3c2)n(C2CCOCC2)c(=O)n4C)cn1` [AZD0156] + C=CCn1c(=O)c2cnc(Nc3ccc(N4CCN(C)CC4)cc3)nc2n1-c1cccc(C(C)(C)O)n1 [AZD1775] (first compound max 1 µM, partner max 1 µM), the Bliss excess in experiment [1] is 0.0145; in [2], -0.063; in experiment [3], -0.0158; in [4], -0.0257; in experiment [5], -0.0831; in experiment [6] it was -0.0219. The Bliss excess in experiment [7] is -0.048; in experiment [8], -0.0006; in experiment [9], -0.0252; in experiment [10], -0.0399; in experiment [11] it was -0.0242; in experiment [12], -0.0369. For the same compound, the Bliss excess in experiment [13] was -0.0774; in [14], -0.0683; in experiment [15] it was -0.0104; in [16] it was -0.0219; in experiment [17] it was 0.0241; in [18], 0.0316. Further, the Bliss excess in [19] amounted to 0.0224.
`C=CCn1c(=O)c2cnc(Nc3ccc(N4CCN(C)CC4)cc3)nc2n1-c1cccc(C(C)(C)O)n1` [AZD1775] + O=C(c1cc(Cc2n[nH]c(=O)c3ccccc23)ccc1F)N1CCN(C(=O)C2CC2)CC1 [Olaparib] (first compound max 1 µM, partner max 10 µM): the Bliss excess was -0.0652 in experiment [1]; -0.032 in experiment [2]; -0.0474 in [3]; 0.0039 in [4]; -0.0851 in experiment [5]; -0.0148 in experiment [7]. In addition, the Bliss excess in [8] is 0.0017; in experiment [9], -0.0482; in experiment [10], 0.0223; in experiment [11], -0.0585; in [12] it was 0.0252; in [13], -0.005. In addition, the Bliss excess in [14] is -0.0138; in experiment [15], -0.03; in [16] it was -0.0436; in experiment [17], 0.0513; in experiment [18], -0.0303; in experiment [19], -0.0211.
With `COc1cccc(OCCCN)c1-c1cc(Nc2cnc(C#N)cn2)n[nH]1` [Prexasertib] + CN(C)CCCOc1ccc(-c2ccc3ncc4c(c3c2)n(C2CCOCC2)c(=O)n4C)cn1 [AZD0156] (first compound max 1 µM, 7x7, partner max 1 µM), the Bliss excess in [1] is -0.0219; in experiment [2], -0.0704; in [3], 0.0171; in experiment [4], -0.0146; in [5], -0.035; in experiment [6] it was 0.0028. Moreover, the Bliss excess is -0.0181 in [7]; -0.0364 in experiment [8]; -0.0393 in experiment [9]; -0.0009 in experiment [10]; -0.0038 in experiment [11]; 0.0215 in experiment [12]. Also, the Bliss excess was -0.0645 in [13]; -0.0478 in experiment [14]; -0.0033 in [15]; 0.0107 in experiment [16]; -0.0022 in [17]; -0.0256 in [18]. In addition, the Bliss excess in [19] was -0.0209.
For the compound `CCN(CCO)CCCOc1ccc2c(Nc3cc(CC(=O)Nc4cccc(F)c4)[nH]n3)ncnc2c1` [AZD2811] + O=C(c1cc(Cc2n[nH]c(=O)c3ccccc23)ccc1F)N1CCN(C(=O)C2CC2)CC1 [Olaparib] (first compound max 1 µM, 7x7, partner max 10 µM), the Bliss excess was 0.0174 in experiment [1]; -0.0161 in experiment [2]; 0.0285 in [3]; -0.0059 in experiment [4]; -0.0223 in experiment [5]; 0.025 in experiment [6]. Further, the Bliss excess in experiment [7] is -0.0329; in experiment [8], 0.0353; in [9] it was -0.0439; in experiment [10], -0.0882; in [11] it was -0.0206; in [12] it was -0.0785. In addition, the Bliss excess in experiment [13] is -0.0434; in experiment [14], 0.0029; in [15], -0.013; in experiment [16], -0.0191; in experiment [17], -0.0019; in experiment [18], 0.0347. Further, in [19], the Bliss excess is 0.0361.
Turning to `CCc1c2c(nc3ccc(O)cc13)-c1cc3c(c(=O)n1C2)COC(=O)[C@]3(O)CC` [SN-38] + O=C(c1cc(Cc2n[nH]c(=O)c3ccccc23)ccc1F)N1CCN(C(=O)C2CC2)CC1 [Olaparib] (first compound max 0.3 µM, 7x7, partner max 10 µM), the Bliss excess in experiment [1] is 0.0167; in experiment [2], 0.0498; in [3], 0.0473; in experiment [4], 0.0181; in [6], -0.0651; in experiment [7] it was 0.128. Besides, the Bliss excess is 0.0139 in [8]; 0.0012 in experiment [9]; 0.0477 in [10]; 0.0329 in experiment [11]; 0.143 in experiment [12]; -0.0495 in experiment [13]. Also, the Bliss excess in experiment [14] stood at 0.0145; in experiment [15], 0.0202; in experiment [16], 0.0235; in experiment [17] it was 0.0357; in [18] it was 0.086; in experiment [19], 0.0502.
Regarding `COc1cccc2c1C(=O)c1c(O)c3c(c(O)c1C2=O)C[C@@](O)(C(=O)CO)C[C@@H]3O[C@H]1C[C@H](N)[C@H](O)[C@H](C)O1` [Doxorubicin] + Cc1cc2ncnn2cc1Nc1ncc2c(n1)n(C1CCOCC1)c(=O)n2C [AZD7648] (first compound max 1 µM, 7x7, partner max 10 µM), the Bliss excess in [1] was 0.0107; in [2], 0.0557; in experiment [3], 0.177; in experiment [4] it was 0.004; in experiment [5], -0.0159; in [6], 0.0561. Also, the Bliss excess in experiment [7] stood at 0.0925; in experiment [8], 0.0885; in [9] it was 0.0063; in [10], 0.0855; in experiment [11], 0.0173; in experiment [12] it was 0.081. Also, the Bliss excess was 0.0162 in experiment [13]; 0.0697 in experiment [14]; 0.0947 in experiment [15]; 0.0556 in experiment [16]; 0.0912 in [17]; 0.126 in experiment [18]. In addition, the Bliss excess in experiment [19] was 0.0444.
